Data from patent publication US20100056468A1, “Pyrimidine Derivatives As Anticancer Agents” (University Health Network, priority 2007, published 2010).
Like-named read-outs stand apart in the source and are kept apart here.

Columns and labels:
[1] = test system: mouse L1210 leukemia cells; conditions: 25 μM, cultured mouse L1210 leukemia cells; cited from earlier work
Mt ODCase = Mt ODCase (Methanothermobacter thermautotrophicus, UniProt O26232); conditions: read-out: inhibition constant (Ki), Mt ODCase; cited from earlier work
Sequence of Mt ODCase (O26232 whole entry): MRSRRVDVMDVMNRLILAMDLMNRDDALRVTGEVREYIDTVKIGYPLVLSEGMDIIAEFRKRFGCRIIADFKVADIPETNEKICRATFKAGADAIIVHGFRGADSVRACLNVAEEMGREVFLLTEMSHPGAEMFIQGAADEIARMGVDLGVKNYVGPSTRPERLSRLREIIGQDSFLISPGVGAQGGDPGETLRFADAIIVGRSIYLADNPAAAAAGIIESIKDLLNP

ODCase = conditions: cited from earlier work
CCD967 = assay: WST-1 cell growth assay (Table 3); type: cell-based; conditions: Homo sapiens, CCD-967, 72 h; CCD967 skin fibroblast line, 3 days
Experimental: (§1) Thirteen C6 substituted nucleoside derivatives were tested against seventeen cancer cell lines in order to understand their anticancer activity potential. Cell growth was measured in 96 well plates (6 replicates per dose) in which 10^4 cells were seeded for 3 days with a range of concentrations of compound Ic and Id using the Roche WST-1 assay (Ishiyama M et al (1995) In Vitro Toxicology 8, 187-189) following manufactures directions.

COLO205 = assay: WST-1 cell growth assay (Table 3); type: cell-based; conditions: Homo sapiens, COLO 205, 72 h; COLO205 colorectal adenocarcinoma, 3 days
Experimental: as §1

HS578T = assay: WST-1 cell growth assay (Table 3); type: cell-based; conditions: Homo sapiens, Hs-578T, 72 h; HS578T breast carcinosarcoma, 3 days
Experimental: as §1

LOX = assay: WST-1 cell growth assay (Table 3); type: cell-based; conditions: Homo sapiens, 72 h; LOX melanoma, 3 days
Experimental: as §1

MCF7 = assay: WST-1 cell growth assay (Table 3); type: cell-based; conditions: Homo sapiens, 72 h; MCF7 breast adenocarcinoma, 3 days
Experimental: as §1

MDA-MB-468 = assay: WST-1 cell growth assay (Table 3); type: cell-based; conditions: Homo sapiens, 72 h; MDA-MB-468 breast adenocarcinoma, 3 days
Experimental: as §1

OCI AML1 = assay: WST-1 cell growth assay (Table 3); type: cell-based; conditions: Homo sapiens, 72 h; OCI AML1 myloid leukemia, 3 days
Experimental: as §1

OCI AML2 = assay: WST-1 cell growth assay (Table 3); type: cell-based; conditions: Homo sapiens, 72 h; OCI AML2 myloid leukemia, 3 days
Experimental: as §1

OCI LY7 = assay: WST-1 cell growth assay (Table 3); type: cell-based; conditions: Homo sapiens, 72 h; OCI LY7 B cell lymphoma, 3 days
Experimental: as §1

OCI MY2 = assay: WST-1 cell growth assay (Table 3); type: cell-based; conditions: Homo sapiens, 72 h; OCI MY2 myeloma, 3 days
Experimental: as §1

OVCAR4 = assay: WST-1 cell growth assay (Table 3); type: cell-based; conditions: Homo sapiens, OVCAR-4, 72 h; OVCAR4 ovarian adenocarcinoma, 3 days
Experimental: as §1

PC3 = assay: WST-1 cell growth assay (Table 3); type: cell-based; conditions: Homo sapiens, PC-3, 72 h; PC3 prostate adenocarcinoma, 3 days
Experimental: as §1

PPC1 = assay: WST-1 cell growth assay (Table 3); type: cell-based; conditions: Homo sapiens, PPC-1, 72 h; PPC1 prostate, 3 days
Experimental: as §1

SKW3 = assay: WST-1 cell growth assay (Table 3); type: cell-based; conditions: Homo sapiens, 72 h; SKW3 T cell leukemia, 3 days
Experimental: as §1

SNB19 = assay: WST-1 cell growth assay (Table 3); type: cell-based; conditions: Homo sapiens, SNB-19, 72 h; SNB19 glioblastoma, 3 days
Experimental: as §1

T47D = assay: WST-1 cell growth assay (Table 3); type: cell-based; conditions: Homo sapiens, 72 h; T47D breast adenocarcinoma, 3 days
Experimental: as §1

70Z/3 (murine) = assay: WST-1 cell growth assay (Table 3); type: cell-based; conditions: Mus musculus, 72 h; 70Z/3 murine B cell leukemia, 3 days
Experimental: as §1
In a pilot study, first the in vivo effects of compound Ic in a murine tumor model (70Z/3) were studied. This murine model served to provide the baseline for toxicity data in a tumor setting. […] In this pilot study, 10^6 70Z/3 cells were injected into syngeneic mice (C57BL6×DBA/2) after which the mice were treated with compound Ic on days 2, 3, 4, 7, 8, and 9 at doses of 0.15 mg/kg or 1.5 mg/kg or with PBS. Some mice were also treated with the compound alone to test for toxic effects in the absence of tumor growth. On day 10, two mice from each group were euthanized and they were examined for the presence of disease. After 70Z/3 cells are injected they home to the spleen and proliferate causing increased spleen weight and cellularity. […] It would appear from this very small pilot study that mice can tolerate a dose of the drug which is ten times more than a dose which reduces tumor expansion in the spleen (FIG. 4 and Table 2). […]

[2] = test system: PBMC - Peripheral blood mononuclear cells; assay: WST-1 cell growth assay on stimulated PBMCs (Table 3); type: cell-based, human
[3] = test system: leukemia/lymphoma and breast cancer cell lines (AML1, AML2, SKW3, OCI LY7, OCI MY2, MDA-MB-468 and MCF7); assay: WST-1 cell growth assay, summary over cell lines; type: cell-based; conditions: Homo sapiens, read-out: Inhibition constants (IC50s), range over cell lines
Experimental: as §1

[4] = test system: 70Z/3 murine acute lymphoblastic leukemia; assay: In vivo pilot study on 70Z/3 leukemic mice
Experimental: (§2) In a pilot study, first the in vivo effects of compound Ic in a murine tumor model (70Z/3) were studied. […]. In this pilot study, 10^6 70Z/3 cells were injected into syngeneic mice (C57BL6×DBA/2) after which the mice were treated with compound Ic on days 2, 3, 4, 7, 8, and 9 at doses of 0.15 mg/kg or 1.5 mg/kg or with PBS. Some mice were also treated with the compound alone to test for toxic effects in the absence of tumor growth. On day 10, two mice from each group were euthanized and they were examined for the presence of disease. After 70Z/3 cells are injected they home to the spleen and proliferate causing increased spleen weight and cellularity. […]. Two additional mice from each group were followed for an additional 7 days during which mice in the treatment groups were treated daily.

[5] = Tolerance in NOD-SCID mice; type: in vivo; conditions: 0.15 mg/kg and 1.5 mg/kg
Experimental: as §2

[6] = Homo sapiens, volunteer, read-out: IC50
[7] = healthy human PBMCs stimulated with concanavalin A and phorbol myristate acetate, read-out: inhibitory constants (IC50's)

| SMILES | IC50 (CCD967) | IC50 (COLO205) | IC50 (HS578T) | IC50 (LOX) | IC50 (MCF7) | IC50 (MDA-MB-468) | IC50 (OCI AML1) | IC50 (OCI AML2) | IC50 (OCI LY7) | IC50 (OCI MY2) | IC50 (OVCAR4) | IC50 (PC3) | IC50 (PPC1) | IC50 (SKW3) | IC50 (SNB19) | IC50 (T47D) | IC50 (70Z/3 (murine)) | IC50 [2, 6] | IC50 [2, 7] | IC50 [3] | further results |
| --- | --- | --- | --- | --- | --- | --- | --- | --- | --- | --- | --- | --- | --- | --- | --- | --- | --- | --- | --- | --- | --- |
| NC(=O)c1[nH]nc([C@@H]2O[C@H](CO)[C@@H](O)[C@H]2O)c1O [pyrazofurin] | – | – | – | – | – | – | – | – | – | – | – | – | – | – | – | – | – | – | – | – | accumulation of OMP [1]: eight-fold increase |
| O=c1cnn([C@@H]2O[C@H](COP(=O)(O)O)[C@@H](O)[C@H]2O)c(=O)[nH]1 [6-Aza-uridine uridine 5′-monophosphate, 6-aza-uridine 5′-monophosphate] | – | – | – | – | – | – | – | – | – | – | – | – | – | – | – | – | – | – | – | – | Ki (Mt ODCase): 11 µM |
| NC(=O)c1[nH]nc(C2OC(COP(=O)(O)O)C(O)C2O)c1O (centres unmarked) [Pyrazofurin 5′-monophosphate] | – | – | – | – | – | – | – | – | – | – | – | – | – | – | – | – | – | – | – | – | Ki (ODCase): 0.005 µM |
| Nc1cc(=O)[nH]c(=O)n1[C@@H]1O[C@H](CO)[C@@H](O)[C@H]1O [Ic, 6-Amino uridine] | > 4 µM | > 4 µM | > 4 µM | > 4 µM | 1.5 ± 0.1 µM | 3.7 ± 0.1 µM | 0.8 ± 0.1 µM | 0.9 ± 0.1 µM | 1.8 ± 0.1 µM | > 4 µM | > 4 µM | > 4 µM | > 4 µM | 0.8 ± 0.1 µM | > 4 µM | > 4 µM | 0.3 µM | > 10 µM | > 10 µM | 0.7 to 3.5 µM | disease progression ([4]; followed for an additional 7 days, treated daily, untreated mice died on days 11 and 13): no sign of disease progression; spleen weight and cellularity ([4]; mice injected with 10^6 70Z/3 cells, 0.15 mg/kg or 1.5 mg/kg on days 2, 3, 4, 7, 8, 9, day 10): indistinguishable from the control mice; spleen weight or cellularity, compound alone ([4]; mice without tumor, compound alone, day 10): did not influence spleen weight or cellularity; tolerance [5]: tolerated these doses without apparent toxicity |
| [N-]=[N+]=Nc1cc(=O)[nH]c(=O)n1[C@@H]1O[C@H](CO)[C@@H](O)[C@H]1O [Id, 6-Azido uridine] | > 4 µM | > 4 µM | > 4 µM | 3.8 ± 0.2 µM | 1 ± 0.2 µM | 2.5 ± 0.3 µM | 0.7 ± 0.1 µM | 0.8 ± 0.2 µM | 1 ± 0.2 µM | 3.8 µM | > 4 µM | > 4 µM | > 4 µM | 0.7 ± 0.1 µM | > 4 µM | > 4 µM | 0.2 µM | > 10 µM | > 10 µM | 0.7 to 3.5 µM | – |
